Four compounds from the NIST ThermoML archive (doi:10.1021/je100472t) can be followed below.

Numbers after ± are expanded uncertainties.

The conditions of the series: 101.33 kPa, Liquid; for speed of sound: Pulse-echo method; for mass density: Vibrating tube method.

As for `CNc1ccccc1` [N-methylaniline], the speed of sound (usually the propagation velocity of pressure waves in the medium) (293.15 K) is 1582.5 ± 2.1 m/s, the speed of sound (298.15 K) amounted to 1563.9 ± 2.1 m/s and the speed of sound (303.15 K) is recorded as 1546 ± 2.1 m/s. Moreover, the mass density (usually mass per unit of volume) (293.15 K) came to 986.295 ± 0.82 kg/m3, the mass density (298.15 K) was found to be 982.278 ± 0.82 kg/m3 and the mass density (303.15 K) worked out at 978.284 ± 0.81 kg/m3.

`Nc1ccccc1` [aniline]: the speed of sound (293.15 K) was determined as 1657 ± 0.94 m/s, the speed of sound (298.15 K) is reported as 1637.8 ± 0.9 m/s and the speed of sound (303.15 K) is 1619.3 ± 0.9 m/s. Also, the mass density amounted to 1021.84 ± 0.092 kg/m3 (293.15 K), 1017.51 ± 0.09 kg/m3 (298.15 K) and 1013.23 ± 0.088 kg/m3 (303.15 K).

With `CCC(C)=O` [butanone], the speed of sound (293.15 K) came to 1212 ± 0.8 m/s, the speed of sound (298.15 K) came to 1190.8 ± 0.8 m/s and the speed of sound (303.15 K) was determined as 1170.6 ± 0.8 m/s. The mass density is, setting by setting: (293.15 K) 805.08 ± 0.14 kg/m3; (298.15 K) 799.861 ± 0.14 kg/m3; (303.15 K) 794.636 ± 0.14 kg/m3.

`c1ccncc1` [pyridine]: the speed of sound came out at 1436.6 ± 0.9 m/s (293.15 K), 1416.2 ± 0.9 m/s (298.15 K) and 1396.9 ± 0.9 m/s (303.15 K). Also, the mass density is on record as 983.163 ± 0.087 kg/m3 (293.15 K), 978.138 ± 0.089 kg/m3 (298.15 K) and 973.148 ± 0.09 kg/m3 (303.15 K).
